From PMC8153946, “Substrate Selectivity of Coumarin Derivatives by Human CYP1 Enzymes: In Vitro Enzyme Kinetics and In Silico Modeling” (ACS Omega, 2021) come the findings set out here.

Holding throughout (format): biochemical
For one series, the target named is T1, human CYP1A1 (Homo sapiens, UniProt P04798).
T1 construct: purchased BD Biosciences Discovery Labware (Woburn, MA, USA); host or cells: baculovirus-insect cells
T1 sequence (P04798 1-512): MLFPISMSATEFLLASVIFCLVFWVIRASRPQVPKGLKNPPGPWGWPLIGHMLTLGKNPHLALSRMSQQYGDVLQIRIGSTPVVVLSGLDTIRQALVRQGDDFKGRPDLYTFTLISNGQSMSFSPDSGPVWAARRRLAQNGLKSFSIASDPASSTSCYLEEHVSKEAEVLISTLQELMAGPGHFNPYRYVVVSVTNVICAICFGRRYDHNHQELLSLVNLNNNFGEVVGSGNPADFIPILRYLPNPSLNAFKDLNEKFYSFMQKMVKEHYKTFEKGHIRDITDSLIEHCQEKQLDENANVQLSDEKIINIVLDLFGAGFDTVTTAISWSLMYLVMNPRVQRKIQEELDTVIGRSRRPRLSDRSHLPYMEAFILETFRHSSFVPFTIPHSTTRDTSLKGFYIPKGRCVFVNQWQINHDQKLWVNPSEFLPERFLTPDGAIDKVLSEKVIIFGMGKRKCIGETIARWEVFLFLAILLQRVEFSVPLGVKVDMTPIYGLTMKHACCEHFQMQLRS
Description: Michaelis–Menten kinetics of oxidation to fluorescent 7-hydroxy metabolite by recombinant CYP1A1. On the set-up: key to screening activity class: NA, no activity was observed.; LA, low screening activity at the 20 μM substrate and 25 nM CYP concentration. The settings on record: for Vmax: recombinant CYP1A1, surrogate standard, 95% confidence interval in brackets; for screening activity class: CYP1A1, 20 μM substrate and 25 nM CYP. As for the experimental part:
(§1) Baculovirus-insect cell-expressed human CYP1A1, CYP1A2, CYP1B1, CYP2A6, CYP2B6, CYP2C8, CYP2C9, CYP2C19, CYP2D6, CYP2E1, CYP3A4, CYP3A5, and CYP3A7 were purchased from BD Biosciences Discovery Labware (Woburn, MA, USA) and used according to the manufacturer’s instructions.
(§2) The kinetic assays were carried out in 100 μL volume containing 100 mM Tris-HCl buffer pH 7.4, 0–40 μM coumarin derivative or 0–10 μM 7-ethoxyresorufin, 1–25 nM recombinant CYP or 0–0.1 g/L microsomal protein, and 20% NADPH regenerating system. Incubations took place at 37 °C in 96-multiwell plates; the fluorescence was measured with a Victor[2] plate reader (PerkinElmer Life Sciences, Turku, Finland). The detailed conditions are described in the figures and tables. The reaction was started by adding NADPH, and fluorescence was measured at 2 min intervals for 40 min using excitation at 405 nm and emission at 460 nm for oxidation of coumarin derivatives[18] and excitation at 570 nm and emission at 615 nm for ethoxyresorufin or pentoxyresorufin 7-O-dealkylations. Incubations without the substrate, enzyme, or NADPH were used as blank reactions. Resorufin was used as a standard, and 3-(4-fluorophenyl)-7-hydroxycoumarin was used as the surrogate standards to calculate the amount of product formed. The linear phase of the reactions was used for calculations.
(§3) Enzyme kinetic parameters were analyzed using the nonlinear Michaelis–Menten equation v = Vmax × S/(Km + S), in which v is the rate for 7-hydroxylation of a coumarin derivative, S is its concentration, and Vmax value is the limiting rate of the reaction of 7-hydroxylation, which reached a half-maximal rate at a concentration of Km for the substrate.

For series [1], the system named is 13 recombinant human CYP enzymes. Description: Oxidation rates by 13 recombinant human CYP enzymes at fixed substrate concentration (Figure 2). Particulars: 25 nM CYP; for CYP1 form oxidizing the substrate fastest: 10 μM coumarin derivative or 1 μM 7-ethoxy/7-pentoxyresorufin; for fluorescence change and rate of the oxidation / oxidation rate relative to oxidation of 7-pentoxyresorufin: fixed substrate concentration. The protocol: as §1, §2
To find out which CYP forms oxidize the 11 novel coumarin derivatives, we determined their oxidation rates to the corresponding 7-hydroxycoumarin metabolites by 13 recombinant human CYP enzymes at a fixed 10 μM substrate concentration (Figure 2). All except 21, 22, and 23 were oxidized faster by one or several CYP1 forms than by the other CYP forms. […] Oxidation rates of the classical CYP substrates 7-ethoxycoumarin, 7-ethoxyresorufin, and 7-pentoxyresorufin were also determined. […] Oxidation of 7-ethoxycoumarin and 7-ethoxyresorufin was 35 and 60 times faster, respectively, than oxidation of 7-pentoxyresorufin. 7-Ethoxyresorufin was oxidized by CYP1A2 and CYP1B1 at 30–40% of the rate of CYP1A1.
Figure 2 Oxidation of the coumarin derivatives and 7-ethoxy- and 7-pentoxyresorufin by 13 human CYP forms. The formation of fluorescent metabolites was determined in incubations containing a 25 nM CYP, a 20% NADPH regenerating system, and a 10 μM coumarin derivative or 1 μM 7-ethoxy/7-pentoxyresorufin in 100 mM Tris-HCl pH 7.4 in the kinetic experimental setup. […] Note the variation in Y-axis scales between subpanels.

Series [2] concerns human CYP1 enzymes (CYP1A1, CYP1A2, CYP1B1). Kind of series: Oxidation efficiency compared across all CYP1 forms (Table 1). Particulars: based on Table 1. As for the experimental part:
as §1, §2, §3

The target in a further series is T2, human CYP1B1 (Homo sapiens, UniProt Q16678).
T2 construct: purchased BD Biosciences Discovery Labware (Woburn, MA, USA); host or cells: baculovirus-insect cells
T2 sequence (Q16678 1-543): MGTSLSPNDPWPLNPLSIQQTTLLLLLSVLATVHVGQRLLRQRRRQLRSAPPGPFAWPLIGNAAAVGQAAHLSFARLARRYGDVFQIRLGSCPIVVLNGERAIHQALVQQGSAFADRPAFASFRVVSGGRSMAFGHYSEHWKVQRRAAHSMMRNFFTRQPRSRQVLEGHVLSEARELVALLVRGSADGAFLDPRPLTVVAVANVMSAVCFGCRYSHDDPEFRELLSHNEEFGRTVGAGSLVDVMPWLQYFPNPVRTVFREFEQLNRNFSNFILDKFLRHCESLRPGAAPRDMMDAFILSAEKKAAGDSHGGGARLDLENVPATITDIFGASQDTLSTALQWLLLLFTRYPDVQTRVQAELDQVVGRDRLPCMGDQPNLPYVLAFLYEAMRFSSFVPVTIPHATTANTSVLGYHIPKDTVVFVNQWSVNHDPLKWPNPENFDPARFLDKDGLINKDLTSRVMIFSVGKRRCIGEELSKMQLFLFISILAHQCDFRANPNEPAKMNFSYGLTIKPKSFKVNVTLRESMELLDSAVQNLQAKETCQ
Kind of series: Michaelis–Menten kinetics of oxidation to fluorescent 7-hydroxy metabolite by recombinant CYP1B1. The arrangement: key to screening activity class: NA, no activity was observed.; LA, low screening activity at the 20 μM substrate and 25 nM CYP concentration. Particulars: for screening activity class: CYP1B1, 20 μM substrate and 25 nM CYP. As for the experimental part: as §1, §2, §3

The target of the next series is T3, CYP1A2 (Homo sapiens, UniProt P05177).
T3 construct: purchased BD Biosciences Discovery Labware (Woburn, MA, USA); host or cells: baculovirus-insect cells
T3 sequence (P05177 1-516): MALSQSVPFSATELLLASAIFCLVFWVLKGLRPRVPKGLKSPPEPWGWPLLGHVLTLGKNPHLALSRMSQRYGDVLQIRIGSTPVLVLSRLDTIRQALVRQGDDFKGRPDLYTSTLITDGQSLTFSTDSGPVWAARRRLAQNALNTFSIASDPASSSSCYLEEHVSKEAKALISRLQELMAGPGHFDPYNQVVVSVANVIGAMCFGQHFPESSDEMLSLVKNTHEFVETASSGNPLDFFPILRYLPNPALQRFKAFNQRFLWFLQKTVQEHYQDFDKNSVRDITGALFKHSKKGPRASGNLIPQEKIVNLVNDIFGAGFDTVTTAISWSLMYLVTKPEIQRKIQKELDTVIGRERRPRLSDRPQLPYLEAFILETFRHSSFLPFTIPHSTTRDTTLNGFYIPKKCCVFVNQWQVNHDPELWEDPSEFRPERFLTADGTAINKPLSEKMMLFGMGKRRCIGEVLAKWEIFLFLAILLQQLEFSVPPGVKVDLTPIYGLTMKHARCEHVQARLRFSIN
Description: Michaelis–Menten kinetics of oxidation to fluorescent 7-hydroxy metabolite by recombinant CYP1A2. On the set-up: key to screening activity class: NA, no activity was observed.; LA, low screening activity at the 20 μM substrate and 25 nM CYP concentration. As for the experimental part: as §1, §2, §3

The structures appear in SMILES notation.

With `CC(=O)Oc1ccc(-c2cc3cc(Cl)ccc3oc2=O)cc1` [Compound 20, 3-(4-acetoxyphenyl)-6-chlorocoumarin], the Vmax at human CYP1A1 was 6.5 mol/(min·mol CYP). Besides, the “CYP1 form oxidizing the substrate fastest” value in series [1] is given as “oxidized faster by CYP1A1 than CYP1A2 or CYP1B1”. Further, the “substrate efficiency compared among CYP1 enzymes” value in series [2] is “efficient substrate for CYP1B1 compared with CYP1A1 and 1A2”.
As for `COc1ccc2oc(=O)c(-c3ccc(O)c(F)c3)cc2c1` [Compound 13, 3-(3-fluoro-4-hydroxyphenyl)-6-methoxycoumarin], at human CYP1A1, the Vmax is listed as 32 mol/(min·mol CYP). Besides, the “CYP1 form oxidizing the substrate fastest” value in series [1] is “oxidized faster by CYP1A1 than CYP1A2 or CYP1B1”. For the same molecule, in series [2], the “substrate efficiency compared among CYP1 enzymes” value was “efficient substrates for CYP1A1 compared with CYP1A2 and CYP1B1”.
With `COc1ccc2cc(-c3ccc(OC(F)(F)F)cc3)c(=O)oc2c1` [Compound 18, 3-(4-trifluoromethoxyphenyl)-7-methoxycoumarin], the “screening activity class” value on human CYP1B1 is on record as “LA”. Besides, the “CYP1 form oxidizing the substrate fastest” value in series [1] is listed as “oxidized faster by CYP1A2 than CYP1A1 or CYP1B1”. Further, the “substrate efficiency compared among CYP1 enzymes” value in series [2] is “oxidized with equal efficiency by CYP1A1 and CYP1A2 and weakly by CYP1B1”.
For `CC(=O)Oc1cccc(-c2cc3cc(Cl)ccc3oc2=O)c1` [Compound 22, 3-(3-acetoxyphenyl)-6-chlorocoumarin], at human CYP1A1, the “screening activity class” value is recorded as “LA”. The “screening activity class” value on CYP1A2 (CYP1A2, 20 μM substrate and 25 nM CYP) is recorded as “LA”. In series [1], the “CYP1 form oxidizing the substrate fastest” value was “oxidized faster by CYP1B1 than by CYP1A1 or CYP1A2”; the “fluorescence change and rate of the oxidation” value (“fluorescence change and rate” for short) is recorded as “almost equally low”.
On to `O=c1oc2ccc(O)cc2cc1-c1cccc(O)c1` [Compound 15, 3-(3-hydroxyphenyl)-6-hydroxycoumarin], for which, on human CYP1B1 (recombinant CYP1B1, surrogate standard, 95% confidence interval in brackets), the Vmax is 0.29 mol/(min·mol CYP). Moreover, in series [1], the “CYP1 form oxidizing the substrate fastest” value is recorded as “oxidized faster by CYP1A2 than CYP1A1 or CYP1B1”. Moreover, the “substrate efficiency compared among CYP1 enzymes” value in series [2] is “efficient substrate for CYP1A2 compared with CYP1A1 and CYP1B1”.
As to `O=c1oc2ccccc2cc1-c1cccc(O)c1` [Compound 23, 3-(3-hydroxyphenyl)coumarin], the “screening activity class” value at human CYP1A1 is “LA”. The “screening activity class” value on human CYP1B1 is “LA”. Besides, in series [1], the “CYP1 form oxidizing the substrate fastest” value is recorded as “oxidized faster by CYP1A2 than CYP1A1 or CYP1B1”; the “fluorescence change and rate” value was “lowest”.
Take `CCOc1ccc2nc3ccc(=O)cc-3oc2c1` [Compound 25, 7-ethoxyresorufin, reference compound]: in series [1] (1 μM substrate), the “oxidation rate by CYP1A2 and CYP1B1 relative to the rate of CYP1A1” value is on record as 30–40%. In series [1], the “CYP1 form oxidizing the substrate fastest” value was “oxidized faster by CYP1A1 than the other CYP1 enzymes” and the “oxidation rate relative to oxidation of 7-pentoxyresorufin” value came to 60 times. Further, the “substrate efficiency compared among CYP1 enzymes” value in series [2] is “efficient substrates for CYP1A1 compared with CYP1A2 and CYP1B1”.
`COc1cccc(-c2cc3cc(OC)ccc3oc2=O)c1` [Compound 19, 3-(3-methoxyphenyl)-6-methoxycoumarin]: the “CYP1 form oxidizing the substrate fastest” value in series [1] is given as “oxidized faster by CYP1A1 than CYP1A2 or CYP1B1”. In series [2], the “substrate efficiency compared among CYP1 enzymes” value was “oxidized with equal efficiency by all CYP1 enzymes”.
Take `Cc1ccc2oc(=O)c(-c3ccc(F)cc3)cc2c1` [Compound 21, 3-(4-fluorophenyl)-6-methylcoumarin]: the “screening activity class” value on human CYP1A1 is “LA”. Besides, the “screening activity class” value on human CYP1B1 is “LA”. In series [1], the “CYP1 form oxidizing the substrate fastest” value is given as “oxidized faster by CYP1A2 than CYP1A1 or CYP1B1”; the “fluorescence change and rate” value is “almost equally low”.
For `COc1ccc2oc(=O)c(-c3ccc(OC(F)(F)F)cc3)cc2c1` [Compound 16, 3-(4-trifluoromethoxyphenyl)-6-methoxycoumarin], the “screening activity class” value at human CYP1B1 was “LA”. In series [1], the “CYP1 form oxidizing the substrate fastest” value was “oxidized faster by CYP1A1 than CYP1A2 or CYP1B1”. Moreover, the “substrate efficiency compared among CYP1 enzymes” value in series [2] was “oxidized with equal efficiency by CYP1A1 and CYP1A2 and weakly by CYP1B1”.
On to `CCOc1ccc2ccc(=O)oc2c1` [Compound 24, 7-ethoxycoumarin, reference compound], for which, on CYP1A2 (human, recombinant CYP1A2 (baculovirus-insect cell-expressed), recombinant CYP1A2, 100 mM Tris-HCl pH 7.4, 37 °C, 95% confidence interval in brackets), the Km is 7.7 µM. The Vmax on CYP1A2 (recombinant CYP1A2, surrogate standard, 95% confidence interval in brackets) is 2.0 (1.4–2.6) mol/(min·mol CYP). In addition, in series [1], the “CYP1 form oxidizing the substrate fastest” value is listed as “oxidized faster by CYP1A1 than the other CYP1 enzymes” and the “oxidation rate relative to oxidation of 7-pentoxyresorufin” value is given as 35 times. The “substrate efficiency compared among CYP1 enzymes” value in series [2] was “efficient substrates for CYP1A1 compared with CYP1A2 and CYP1B1”.
On to `COc1ccc(-c2cc3cc(OC(C)=O)ccc3oc2=O)cc1` [Compound 17, 3-(4-methoxyphenyl)-6-acetoxycoumarin], for which the “screening activity class” value on human CYP1B1 was “LA”. Also, the “CYP1 form oxidizing the substrate fastest” value in series [1] was “oxidized faster by CYP1A2 than CYP1A1 or CYP1B1”.

For orientation: Km means the concentration of substrate that gives half-maximal velocity.
